Test results from patent US12098148B2, “Therapeutic compounds” (C4X Discovery Limited, priority 2018, dated 2024).

Tests used:
[1] = molecular target: human KEAP1 (N-term, residues 321-609) (Homo sapiens, UniProt Q14145); assay: biochemical;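 further: fluorescence polarization competition assay of Kelch domain binding to NRF2, 12-point 1:3 dilution series from 10 µM, read after 1 h at room temperature, floor 10 nM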
[2] = test system: NQO1 mRNA in BEAS-2B cells; assay: Beas2B NQO1 mRNA cell based assay; parameters: species or system human; conditions: Homo sapiens, BEAS-2B, 24 h, 24 h compound treatment, increase in NQO1 mRNA vs vehicle (0.1% DMSO), read-out: EC50
How it was run: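 Relative NQO1 transcript level derived by ΔΔCT with human β-actin as internal control, using direct-lysate one-step RT-qPCR. Cells were BEAS-2B, plated overnight then treated with compound for 24 h.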

human KEAP1 (N-term, residues 321-609), sequence (Q14145 321-609): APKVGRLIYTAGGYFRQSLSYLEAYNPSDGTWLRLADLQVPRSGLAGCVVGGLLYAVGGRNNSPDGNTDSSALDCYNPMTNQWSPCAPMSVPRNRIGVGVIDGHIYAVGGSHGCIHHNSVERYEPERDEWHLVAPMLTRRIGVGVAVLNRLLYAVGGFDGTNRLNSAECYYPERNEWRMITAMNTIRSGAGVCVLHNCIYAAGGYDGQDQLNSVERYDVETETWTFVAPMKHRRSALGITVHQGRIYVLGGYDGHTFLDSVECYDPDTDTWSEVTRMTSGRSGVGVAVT

Row | Compound | IC50 [1] | EC50 [2]
1 | C[C@@H]1CCN(C[C@@H]2c3c(OCc4nnn(C)c4C(F)(F)F)ccc(Cl)c3CCN2C(=O)[C@@H]2CCCC[C@]2(C)C(=O)O)C1=O [Example 131, (1S,2R)-2-((S)-5-chloro-1-(((R)-3-methyl-2-oxopyrrolidin-1-yl)methyl)-8-((1-methyl-5-(trifluoromethyl)-1H-1,2,3-triazol-4-yl)methoxy)-1,2,3,4-tetrahydroisoquinoline-2-carbonyl)-1-methylcyclohexane-1-carboxylic acid] | 12 nM | 200 nM
2 | C[C@]1(C(=O)O)CCCC[C@H]1C(=O)N1CCc2c(Cl)ccc(OCc3nnn(C4CC4)c3C(F)F)c2[C@H]1CN1CCCC1=O [Example 134, (1S,2R)-2-((S)-5-chloro-8-((1-cyclopropyl-5-(difluoromethyl)-1H-1,2,3-triazol-4-yl)methoxy)-1-((2-oxopyrrolidin-1-yl)methyl)-1,2,3,4-tetrahydroisoquinoline-2-carbonyl)-1-methylcyclohexane-1-carboxylic acid] | 8.2 nM | 2.2 nM
3 | CC1(C)CC(COc2ccc(Cl)c3c2[C@@H](CN2CC4(CC4)CC2=O)N(C(=O)[C@@H]2CCCC[C@]2(C)C(=O)O)CC3)=NO1 [Example 136, (1S,2R)-2-((S)-5-chloro-8-((5,5-dimethyl-4,5-dihydroisoxazol-3-yl)methoxy)-1-((6-oxo-5-azaspiro[2.4]heptan-5-yl)methyl)-1,2,3,4-tetrahydroisoquinoline-2-carbonyl)-1-methylcyclohexane-1-carboxylic acid] | 22 nM | 1700 nM
4 | Cc1conc1COc1ccc(Cl)c2c1[C@@H](CN1CCCC1=O)N(C(=O)[C@@H]1CCCC[C@]1(C)C(=O)O)CC2 [Example 137, (1S,2R)-2-((S)-5-chloro-8-((4-methylisoxazol-3-yl)methoxy)-1-((2-oxopyrrolidin-1-yl)methyl)-1,2,3,4-tetrahydroisoquinoline-2-carbonyl)-1-methylcyclohexane-1-carboxylic acid] | 6.3 nM | 6.7 nM
5 | C[C@]1(C(=O)O)CCCC[C@H]1C(=O)N1CCc2c(Cl)ccc(OCc3noc4c3CCCC4)c2[C@H]1CN1CCCC1=O [Example 138, (1S,2R)-2-((S)-5-chloro-1-((2-oxopyrrolidin-1-yl)methyl)-8-((4,5,6,7-tetrahydrobenzo[d]isoxazol-3-yl)methoxy)-1,2,3,4-tetrahydroisoquinoline-2-carbonyl)-1-methylcyclohexane-1-carboxylic acid] | 7.9 nM | 0.8 nM
6 | Cn1nnc(COc2ccc(Cl)c3c2[C@@H](CN2CCCC2=O)N(C(=O)[C@@H]2CC4CCC2(C(=O)O)CC4)CC3)c1C(F)F [Example 141, (R)-2-((S)-5-chloro-8-((5-(difluoromethyl)-1-methyl-1H-1,2,3-triazol-4-yl)methoxy)-1-((2-oxopyrrolidin-1-yl)methyl)-1,2,3,4-tetrahydroisoquinoline-2-carbonyl)bicyclo[2.2.2]octane-1-carboxylic acid] | 7 nM | 35 nM
7 | COCCn1nnc(COc2ccc(Cl)c3c2[C@@H](CN2CCCC2=O)N(C(=O)[C@@H]2CCCC[C@]2(C)C(=O)O)CC3)c1C(F)F [Example 145, (1S,2R)-2-((S)-5-chloro-8-((5-(difluoromethyl)-1-(2-methoxyethyl)-1H-1,2,3-triazol-4-yl)methoxy)-1-((2-oxopyrrolidin-1-yl)methyl)-1,2,3,4-tetrahydroisoquinoline-2-carbonyl)-1-methylcyclohexane-1-carboxylic acid] | 6.4 nM | 4.9 nM

Stronger by IC50 [1], values ahead:

Row | IC50 [1] | Compound | EC50 [2]
8 | 5.1 nM | C[C@@H]1CC(=O)N(C[C@@H]2c3c(OCc4nnn(C)c4C(F)(F)F)ccc(Cl)c3CCN2C(=O)[C@@H]2CCCC[C@]2(C)C(=O)O)C1 [Example 132, (1S,2R)-2-((S)-5-chloro-1-(((R)-4-methyl-2-oxopyrrolidin-1-yl)methyl)-8-((1-methyl-5-(trifluoromethyl)-1H-1,2,3-triazol-4-yl)methoxy)-1,2,3,4-tetrahydroisoquinoline-2-carbonyl)-1-methylcyclohexane-1-carboxylic acid] | 5.7 nM
9 | 5.3 nM | C[C@]1(C(=O)O)CCCC[C@H]1C(=O)N1CCc2c(Cl)ccc(OCc3cncnc3C(F)F)c2[C@H]1CN1CC2(CC2)CC1=O [Example 135, (1S,2R)-2-((S)-5-chloro-8-((4-(difluoromethyl)pyrimidin-5-yl)methoxy)-1-((6-oxo-5-azaspiro[2.4]heptan-5-yl)methyl)-1,2,3,4-tetrahydroisoquinoline-2-carbonyl)-1-methylcyclohexane-1-carboxylic acid] | 0.91 nM
10 | 4.5 nM | Cn1nnc(COc2ccc(Cl)c3c2[C@@H](CN2CC4(CC4)CC2=O)N(C(=O)[C@@H]2OCCC[C@@H]2C(=O)O)CC3)c1C(F)F [Example 140, (2R,3S)-2-((S)-5-chloro-8-((5-(difluoromethyl)-1-methyl-1H-1,2,3-triazol-4-yl)methoxy)-1-((6-oxo-5-azaspiro[2.4]heptan-5-yl)methyl)-1,2,3,4-tetrahydroisoquinoline-2-carbonyl)tetrahydro-2H-pyran-3-carboxylic acid] | 150 nM
11 | 5 nM | [2H]C1([2H])CC[C@](C)(C(=O)O)[C@H](C(=O)N2CCc3c(Cl)ccc(OCc4nnn(C)c4C(F)F)c3[C@H]2CN2CC3(CC3)CC2=O)C1 [Example 142, (1S,2R)-2-((S)-5-chloro-8-((5-(difluoromethyl)-1-methyl-1H-1,2,3-triazol-4-yl)methoxy)-1-((6-oxo-5-azaspiro[2.4]heptan-5-yl)methyl)-1,2,3,4-tetrahydroisoquinoline-2-carbonyl)-1-methylcyclohexane-1-carboxylic-4,4-d2 acid] | 0.21 nM
12 | 5.2 nM | Cc1c(COc2c(F)cc(Cl)c3c2[C@@H](CN2CC4(CC4)CC2=O)N(C(=O)[C@@H]2CCCC[C@]2(C)C(=O)O)CC3)nnn1C [Example 143, (1S,2R)-2-((S)-5-chloro-8-((1,5-dimethyl-1H-1,2,3-triazol-4-yl)methoxy)-7-fluoro-1-((6-oxo-5-azaspiro[2.4]heptan-5-yl)methyl)-1,2,3,4-tetrahydroisoquinoline-2-carbonyl)-1-methylcyclohexane-1-carboxylic acid] | 0.05 nM
13 | 5.7 nM | C[C@]1(C(=O)O)CCCC[C@H]1C(=O)N1CCc2c(Cl)cc(F)c(OCc3nnn4c3CCC4)c2[C@H]1CN1CC2(CC2)CC1=O [Example 146, (1S,2R)-2-((S)-5-chloro-8-((5,6-dihydro-4H-pyrrolo[1,2-c][1,2,3]triazol-3-yl)methoxy)-7-fluoro-1-((6-oxo-5-azaspiro[2.4]heptan-5-yl)methyl)-1,2,3,4-tetrahydroisoquinoline-2-carbonyl)-1-methylcyclohexane-1-carboxylic acid] | 0.23 nM
14 | 5.1 nM | Cn1nnc(COc2c(F)cc(Cl)c3c2[C@@H](CN2CCCC2=O)N(C(=O)[C@@H]2CCCC[C@]2(C)C(=O)O)CC3)c1C(F)F [Example 147, (1S,2R)-2-((S)-5-chloro-8-((5-(difluoromethyl)-1-methyl-1H-1,2,3-triazol-4-yl)methoxy)-7-fluoro-1-((2-oxopyrrolidin-1-yl)methyl)-1,2,3,4-tetrahydroisoquinoline-2-carbonyl)-1-methylcyclohexane-1-carboxylic acid] | 0.29 nM
